Source: US11306081B2, “Phenylacetamides as inhibitors of rock” (BRISTOL-MYERS SQUIBB COMPANY, priority 2017, dated 2022)

Target: ROCK2 (Homo sapiens (Human), UniProt O75116)
Test: ROCK assay (LABCHIP 3000 peptide phosphorylation assay)
Assay type: biochemical
Conditions: 5 μM ATP, 1.5 μM peptide substrate, dose-response
Description: The effectiveness of compounds of the present invention as ROCK inhibitors can be determined in a 30 μL assay containing 20 mM HEPES, pH 7.5, 20 mM MgCl2, 0.015% Brij-35, 4 mM DTT, 5 μM ATP and 1.5 μM peptide substrate (FITC-AHA-AKRRRLSSLRA-OH) (SEQ ID No. 1). Compounds were dissolved in DMSO so that the final concentration of DMSO was <2%, and the reaction was initiated with Rho kinase variants. After incubation, the reaction was terminated by the addition of EDTA and the phosphorylated and non-phosphorylated peptides separated using a LABCHIP® 3000 Reader (Caliper Life Sciences). […] Compounds were tested in dose-response format, and the inhibition of kinase activity was calculated at each concentration of compound. The inhibition data were fit using a curve-fitting program to determine the IC50; i.e., the concentration of compound required to inhibit 50% of kinase activity.

Chain of ROCK2 (O75116 whole entry, species assumed): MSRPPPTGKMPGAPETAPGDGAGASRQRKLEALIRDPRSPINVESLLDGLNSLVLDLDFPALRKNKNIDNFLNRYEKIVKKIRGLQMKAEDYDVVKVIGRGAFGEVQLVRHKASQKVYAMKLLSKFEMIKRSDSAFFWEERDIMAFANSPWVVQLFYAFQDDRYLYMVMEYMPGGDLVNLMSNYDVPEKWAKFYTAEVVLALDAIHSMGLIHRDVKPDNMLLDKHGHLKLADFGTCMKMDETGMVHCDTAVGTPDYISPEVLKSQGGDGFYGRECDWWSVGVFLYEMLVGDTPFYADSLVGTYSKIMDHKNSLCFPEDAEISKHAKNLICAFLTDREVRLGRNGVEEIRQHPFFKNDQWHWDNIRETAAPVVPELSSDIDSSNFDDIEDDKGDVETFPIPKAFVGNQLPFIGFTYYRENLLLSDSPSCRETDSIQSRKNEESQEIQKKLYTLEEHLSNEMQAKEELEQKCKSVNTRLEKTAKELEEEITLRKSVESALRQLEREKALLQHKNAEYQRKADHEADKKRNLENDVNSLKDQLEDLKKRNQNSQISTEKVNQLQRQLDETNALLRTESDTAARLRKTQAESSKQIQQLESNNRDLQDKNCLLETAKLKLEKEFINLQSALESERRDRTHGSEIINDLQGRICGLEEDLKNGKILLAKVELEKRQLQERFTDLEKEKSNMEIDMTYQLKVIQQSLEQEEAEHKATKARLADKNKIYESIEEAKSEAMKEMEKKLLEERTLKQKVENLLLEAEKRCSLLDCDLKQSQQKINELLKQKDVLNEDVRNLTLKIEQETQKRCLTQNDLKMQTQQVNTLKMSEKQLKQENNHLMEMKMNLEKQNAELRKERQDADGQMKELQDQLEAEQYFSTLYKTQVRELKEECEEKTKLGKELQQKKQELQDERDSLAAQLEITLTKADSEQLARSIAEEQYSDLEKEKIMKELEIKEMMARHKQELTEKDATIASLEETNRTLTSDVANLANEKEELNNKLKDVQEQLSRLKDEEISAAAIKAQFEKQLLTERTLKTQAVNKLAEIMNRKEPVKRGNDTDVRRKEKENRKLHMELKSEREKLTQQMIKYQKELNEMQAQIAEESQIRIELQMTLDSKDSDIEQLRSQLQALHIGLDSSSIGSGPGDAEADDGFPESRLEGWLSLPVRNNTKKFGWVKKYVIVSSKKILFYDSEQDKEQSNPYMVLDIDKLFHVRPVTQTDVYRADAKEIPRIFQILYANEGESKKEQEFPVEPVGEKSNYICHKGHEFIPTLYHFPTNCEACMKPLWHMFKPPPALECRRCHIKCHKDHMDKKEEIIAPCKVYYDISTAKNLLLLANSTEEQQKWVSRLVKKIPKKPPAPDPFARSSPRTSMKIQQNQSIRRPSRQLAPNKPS

| SMILES | IC50 [nM] |
| --- | --- |
| COc1ccc2c(c1)CCc1sc(NC(=O)Cc3ccc(Oc4ncccc4C(N)=O)c(F)c3)nc1-2 [Example 001, 2-(2-fluoro-4-(2-((7-methoxy-4,5-dihydronaphtho[1,2-d]thiazol-2-yl)amino)-2-oxoethyl)phenoxy)nicotinamide] | 10 |
| COc1ccc2sc(NC(=O)Cc3ccc(Oc4ncccc4C(N)=O)cc3)nc2c1 [Example 002, 2-(4-(2-((5-methoxybenzo[d]thiazol-2-yl)amino)-2-oxoethyl)phenoxy) Nicotinamide] | 35 |
| CC(C)(O)COc1ccc2sc(NC(=O)Cc3ccc(Oc4ncccc4C(N)=O)c(F)c3)nc2c1 [Example 003, 2-(2-fluoro-4-(2-((5-(2-hydroxy-2-methylpropoxy)benzo[d]thiazol-2-yl)amino)-2-oxoethyl)phenoxy)nicotinamide] | 20 |
| Cc1nn(C)cc1-c1ccc2sc(NC(=O)Cc3ccc(Oc4ncccc4C(N)=O)c(F)c3)nc2c1 [Example 004, 2-(4-(2-((5-(1,3-dimethyl-1H-pyrazol-4-yl)benzo[d]thiazol-2-yl)amino)-2-oxoethyl)-2-fluorophenoxy)nicotinamide] | 3 |
| Cc1n[nH]c(C)c1-c1ccc2sc(NC(=O)Cc3ccc(Oc4ncccc4C(N)=O)c(F)c3)nc2c1 [Example 005, 2-(4-(2-((5-(3,5-dimethyl-1H-pyrazol-4-yl)benzo[d]thiazol-2-yl)amino)-2-oxoethyl)-2-fluorophenoxy)nic-otinamide] | 10 |
| Cn1nc(C(F)(F)F)cc1-c1ccc2sc(NC(=O)Cc3ccc(Oc4ncccc4C(N)=O)c(F)c3)nc2c1 [Example 006, 2-(2-fluoro-4-(2-((5-(1-methyl-3-(trifluoromethyl)-1H-pyrazol-5-yl)benzo[d]thiazol-2-yl)amino)-2-oxoethyl)phenoxy) nicotinamide] | 18 |
| NC(=O)c1cccnc1Oc1ccc(CC(=O)Nc2nc3ccccc3n2CC2CC2)cc1Cl [Example 007, 2-(2-chloro-4-(2-((1-(cyclopropylmethyl)-1H-benzo[d]imidazol-2-yl)amino)-2-oxoethyl)phenoxy)nicotinamide] | 14 |
| COc1ccn2nc(NC(=O)Cc3ccc(Oc4ncccc4C(N)=O)c(F)c3)nc2c1 [Example 008, 2-(2-fluoro-4-(2-((7-methoxy-[1,2,4]triazolo[1,5-a]pyridin-2-yl)amino)-2-oxoethyl)phenoxy)nicotinamide] | 7 |
| NC(=O)c1cccnc1Oc1ccc(CC(=O)Nc2cn3cc(Br)ccc3n2)cc1Cl [Example 009, 2-(4-(2-((6-bromoimidazo[1,2-a]pyridin-2-yl)amino)-2-oxoethyl)-2-chlorophenoxy)nicotinamide] | 35 |
| Cn1nc(NC(=O)Cc2ccc(Oc3ncccc3C(N)=O)c(Cl)c2)c2cccnc21 [Example 010, 2-(2-chloro-4-(2-((1-methyl-1H-pyrazolo[3,4-b]pyridin-3-yl)amino)-2-oxoethyl)phenoxy)nicotinamide] | 159 |
| NC(=O)c1cccnc1Oc1ccc(CC(=O)Nc2nnc(-c3cnccn3)s2)cc1F [Example 011, 2-(2-fluoro-4-(2-oxo-2-((5-(pyrazin-2-yl)-1,3,4-thiadiazol-2yl)amino)ethyl)phe-noxy) nicotinamide] | 150 |
| Cc1nc(NC(=O)Cc2ccc(Oc3ncccc3C(N)=O)c(F)c2)sc1-c1ccccn1 [Example 012, 2-(2-fluoro-4-(2-((4-methyl-5-(pyridin-2-yl)thiazol-2-yl)amino)-2-oxoethyl)phenoxy)nic-otinamide] | 38 |
| Cc1sc(NC(=O)Cc2ccc(Oc3ncccc3C(N)=O)c(F)c2)nc1-c1cccc(F)n1 [Example 013, 2-(2-fluoro-4-(2-((4-(6-fluoropyridin-2-yl)-5-methylthiazol-2-yl)amino)-2-oxoethyl)phenoxy)nicotinamide] | 21 |
| Cc1sc(NC(=O)Cc2ccc(Oc3ncccc3C(N)=O)c(F)c2)nc1-c1ccc(F)cn1 [Example 014, 2-(2-fluoro-4-(2-((4-(5-fluoropyridin-2-yl)-5-methylthiazol-2-yl)amino)-2-oxoethyl)phenoxy)nic-otinamide] | 96 |
| NC(=O)c1cccnc1Oc1ccc(CC(=O)Nc2nc3ccccc3s2)cc1F [Example 015, 2-(4-(2-(benzo[d]thiazol-2-ylamino)-2-oxoethyl)-2-fluorophenoxy)nicotinamide] | 31 |
| Cc1sc(NC(=O)Cc2ccc(Oc3ncccc3C(N)=O)cc2)nc1-c1ccccc1 [Example 016, 2-(4-(2-((5-methyl-4-phenylthiazol-2-yl)amino)-2-oxoethyl)phenoxy) nicotinamide] | 87 |
| Cn1ccc(-c2csc(NC(=O)Cc3ccc(Oc4ncccc4C(N)=O)c(F)c3)n2)cc1=O [Example 017, 2-(2-fluoro-4-(2-((4-(1-methyl-2-oxo-1,2-dihydropyridin-4-yl)thiazol-2-yl)amino)-2-oxoethyl)phenoxy)nicotinamide] | 404 |
| NC(=O)c1cccnc1Oc1ccc(CC(=O)Nc2nc(-c3cc[nH]c(=O)c3)cs2)cc1F [Example 018, 2-(2-fluoro-4-(2-oxo-2-((4-(2-oxo-1,2-dihydropyridin-4-yl)thiazol-2-yl)amino)ethyl)phenoxy)nicotinamide] | 245 |
| COC(=O)Nc1cc(-c2nc(NC(=O)Cc3ccc(Oc4ncccc4C(N)=O)c(F)c3)sc2C)ccn1 [Example 019, methyl (4-(2-(2-(4-((3-carbamoylpyridin-2-yl)oxy)-3-fluorophenyl)acetamido)-5-methylthiazol-4-yl)pyridin-2-yl)carbamate] | 49 |
| Cc1sc(NC(=O)Cc2ccc(Oc3ncccc3C(N)=O)c(F)c2)nc1-c1ccc(=O)n(C)c1 [Example 020, 2-(2-fluoro-4-(2-((5-methyl-4-(1-methyl-6-oxo-1,6-dihydropyridin-3-yl)thiazol-2-yl)amino)-2-oxoethyl)phenoxy)nicotinamide] | 106 |
| Cc1sc(NC(=O)Cc2ccc(Oc3ncccc3C(N)=O)c(F)c2)nc1-c1ccc(=O)n(C(F)F)c1 [Example 021, 2-(4-(2-((4-(1-(difluoromethyl)-6-oxo-1,6-dihydropyridin-3-yl)-5-methylthiazol-2-yl)amino)-2-oxoethyl)-2-fluorophenoxy)nicotinamide] | 53 |
| Cc1cccc(-c2nc(NC(=O)Cc3ccc(Oc4ncccc4C(N)=O)c(Cl)c3)sc2C)n1 [Example 022, 2-(2-chloro-4-(2-((5-methyl-4-(6-methylpyridin-2-yl)thiazol-2-yl)amino)-2-oxoethyl)phenoxy)nicotinamide] | 41 |
| NC(=O)c1cccnc1Oc1ccc(CC(=O)Nc2nc(C3CCC3)c(-c3ccccn3)s2)cc1Cl [Example 023, 2-(2-chloro-4-(2-((4-cyclobutyl-5-(pyridin-2-yl)thiazol-2-yl)amino)-2-oxoethyl)phenoxy)nicotinamide] | 4 |
| NC(=O)c1cccnc1Oc1ccc(CC(=O)Nc2nc3cc(-c4cc[nH]c(=O)c4)ccc3s2)cc1F [Example 024, 2-(2-fluoro-4-(2-oxo-2-((5-(2-oxo-1,2-dihydropyridin-4-yl)benzo[d]thiazol-2-yl)amino)ethyl)phe-noxy)nicotinamide] | 8 |
| Cn1ccc(-c2ccc3sc(NC(=O)Cc4ccc(Oc5ncccc5C(N)=O)c(F)c4)nc3c2)cc1=O [Example 025, 2-(2-fluoro-4-(2-((5-(1-methyl-2-oxo-1,2-dihydropyridin-4-yl)benzo[d]thiazol-2-yl)amino)-2-oxoethyl)phenoxy)nico-tinamide] | 23 |
